The values below come from PubChem BioAssay AID1996.

Converted amounts (≈) assume the structure as drawn.

Usually kinetic solubility stands for solubility judged after dilution from a stock solution rather than from solid.

The conditions of this series: buffer; pH 7.4; 200.0 µM.
`COc1ccc(OC)c(CNC(=O)C2CCN(S(C)(=O)=O)CC2)c1` returned a solubility (kinetic) greater than 53.5 µg/mL.
`C=CCNC(=O)COc1ccc(Oc2ccccc2)cc1` yielded a kinetic solubility greater than 42.5 µg/mL.
In the case of `NC(=O)C1(C(N)=O)OC1c1ccccc1` (stereo unspecified), the solubility (kinetic) is greater than 30.9 µg/mL.
`COc1ccc(-c2cc(-c3ccccc3)c(C#N)c(=S)[nH]2)cc1`: the kinetic solubility stood at 3.2 µg/mL (≈ 10.1 µM).
The compound `O=C(NCC1CCCO1)c1cc(-c2ccccc2F)no1` (stereo unspecified) registered a solubility (kinetic) of 42.4 µg/mL (≈ 146 µM).
Next, `COC(=O)C1=C(N)OC2=C(C(=O)CC(C)(C)C2)C1c1ccccc1OC` (stereo unspecified): greater than 53.6 µg/mL; `COc1ccc(NC(=O)c2cccs2)cn1`: greater than 35.1 µg/mL.
To `Cc1ccc(N2CC(C(=O)N3CCCCCC3)CC2=O)cc1` (stereo unspecified) belongs greater than 45.1 µg/mL; to `O=c1[nH]c(=S)n(C2CC2)c(O)c1C=NCc1cccnc1`, greater than 45.4 µg/mL; to `COc1ccc(C(CNS(=O)(=O)c2ccc(NC(C)=O)c(OC)c2)N2CCCCC2)cc1.Cl` (stereo unspecified), greater than 74.7 µg/mL.
In turn, `CC(=O)c1c(C)[nH]c(C(=O)Nc2ccc(Cl)cc2)c1C` came in with a solubility (kinetic) of 2.2 µg/mL (≈ 7.57 µM).
Consider `CCCn1nc(C(=O)NC2CCCC2)c2ccccc2c1=O`, for which the kinetic solubility was greater than 44.9 µg/mL.
On to `COc1ccc(CC(=O)OCN2C(=O)c3ccccc3C2=O)cc1OC`, for which the solubility (kinetic) was greater than 53.3 µg/mL.
Next, `COc1cccc(OC)c1C(=O)Nc1ccc2nc(C)c(C)nc2c1`: 4.5 µg/mL (≈ 13.3 µM).
In turn, `O=S(=O)(CCSc1ccc(C(F)(F)F)cn1)c1ccccc1` had a solubility (kinetic) of 4.7 µg/mL (≈ 13.5 µM).
Turning to `Cc1ccccc1NC(=O)CN1CCN(Cc2ccccc2)CC1`, the kinetic solubility came to 44.3 µg/mL (≈ 137 µM).
Next, `CN1C(=O)c2ccccc2C(O)c2ccccc21` (stereo unspecified): 31.8 µg/mL (≈ 133 µM); `CCc1nc(N2CCCCC2C(=O)O)c2oc3ccccc3c2n1` (stereo unspecified): greater than 48.8 µg/mL; `COc1cc(CSc2nc(-c3ccccc3)cc(=O)[nH]2)cc(OC)c1`: less than 0.4 µg/mL.
Next, `COc1ccccc1NC(=O)/C(=C/c1ccncc1)NC(=O)c1ccccc1`: 22.2 µg/mL (≈ 59.5 µM); `O=C(CN1C(=O)NC2NC(=O)NC21)N/N=C/c1ccccc1O` (stereo unspecified): greater than 47.7 µg/mL; `O=[N+]([O-])c1ccc(SCCc2ccncc2)cc1`: 31.5 µg/mL (≈ 121 µM).
To `O=C(NC(=S)Nc1ccc(F)cc1)C1CCCCC1` belongs 1.3 µg/mL (≈ 4.64 µM); to `O=C(COc1ccccc1)Nc1cc2c3c(c1)CC(=O)N3CCC2`, greater than 48.4 µg/mL; to `O=C(CCc1nc2ccccc2s1)N1CCN(c2ccccc2)CC1`, greater than 52.7 µg/mL.
Regarding `CC1CCCN(c2ccc(F)cc2N)C1.Cl` (stereo unspecified), the kinetic solubility amounted to 3.8 µg/mL.
To `CN1CCN(C(=O)CN(C)S(=O)(=O)c2ccc(F)cc2)CC1` belongs 44.7 µg/mL (≈ 136 µM); to `CCN(C(=O)COC(=O)CCC(=O)c1cccs1)c1ccccc1`, greater than 51.8 µg/mL.
Next, `COc1ccccc1OC(C)C(=O)N1CCc2ccccc21` (stereo unspecified): 3.3 µg/mL (≈ 11.1 µM); `O=C(Cc1nc2ccccc2[nH]1)c1ccc(Cl)cc1`: 24.2 µg/mL (≈ 89.4 µM).
To `COC(=O)c1cccc(NC(=O)Cc2ccsc2)c1` belongs greater than 41.3 µg/mL; to `COC(=O)C1CCN(CC(=O)Nc2ccc3c(c2)OCCO3)CC1`, greater than 50.2 µg/mL.
As for `Cc1ccc(NC(=S)NCc2ccc(Cl)cc2)c(C)c1`, the kinetic solubility came out at 2.3 µg/mL (≈ 7.54 µM).
Next, `Cc1ccc(-c2c(=O)n(O)c3ccccc3[n+]2[O-])cc1`: 40.1 µg/mL (≈ 149 µM); `CC(=O)N/C(=C\c1ccccc1)C(=O)OCC(=O)c1c(N)n(C)c(=O)n(C)c1=O`: 18.2 µg/mL (≈ 45.5 µM).
Next, `COc1ccc(C2(O)C(=O)Nc3ccccc32)cc1` (stereo unspecified): greater than 38.3 µg/mL; `CCc1ccc(OCC(=O)Nc2ccncc2)cc1`: greater than 38.4 µg/mL.
The compound `CC(=O)Nc1ccc(NC(=O)c2c(-c3ccccc3)noc2C)cn1` gave a kinetic solubility of 11.1 µg/mL (≈ 33 µM).
Next, `Cc1ccc(NC(=O)C2CCN(S(C)(=O)=O)CC2)cc1Cl`: 16.4 µg/mL (≈ 49.6 µM); `CN(CC(=O)Nc1cccc(C(F)(F)F)c1)C1=NS(=O)(=O)c2ccccc21`: 3.7 µg/mL (≈ 9.31 µM).
`CCN(CC)CC(O)CCCCCCCCC(=O)OC.Cl` (stereo unspecified) displayed a kinetic solubility greater than 48.6 µg/mL.
Next, `O=C(NCc1ccncc1)c1cncc(Br)c1`: greater than 43.8 µg/mL; `Cc1ccc(NC2=C(Cl)C(=O)OC2OC(=O)c2ccc(C)cc2)cc1` (stereo unspecified): 2.6 µg/mL (≈ 7.27 µM); `CC(=NCCC1=CCCCC1)c1c(O)n(-c2ccccc2)c(=O)[nH]c1=O`: 10 µg/mL (≈ 28.3 µM).
`CCN1CCN(CC(c2ccccc2)c2ccccc2)CC1`: the kinetic solubility came to 29.1 µg/mL (≈ 98.8 µM).
To `c1ccc(-c2cc(NCCN3CCCCC3)c3ccccc3n2)cc1` belongs greater than 49.7 µg/mL; to `CCOC(=O)c1cc(C#N)c(SCC(=O)O)[nH]c1=O`, 38.8 µg/mL (≈ 137 µM); to `CC(C)(C)c1ccc(-c2noc(CCC(=O)Nc3cccnc3)n2)cc1`, 3.1 µg/mL (≈ 8.85 µM).
`Cc1c(O)c(CN(C)C)cc2c1oc(=O)c1ccccc12` showed a solubility (kinetic) greater than 42.5 µg/mL.
Next, `CC(=O)c1c(Nc2cccc(F)c2)oc(C)cc1=O`: 31.3 µg/mL (≈ 120 µM).
In the case of `COC(=O)Cn1c(Cc2ccccc2)nc2ccccc21`, the solubility (kinetic) was greater than 42 µg/mL.
